{
  "source": "patent US6914045B2",
  "about": "“Glycopeptide antibiotics” (Wyeth Holdings Corporation, priority 2001, dated 2005)",
  "test_in_all_cases": "in vitro antibacterial evaluation, MIC by broth dilution",
  "format_in_all_cases": "cell-based",
  "key": {"[1]": {"test_system": "Enterococcus sp.", "settings": "broth dilution, 18 hours at 35° C.; for MIC Enterococcus faecalis (ATCC 29212): strain ATCC 29212; for MIC Enterococcus faecalis (GC 2242): strain GC 2242; for MIC Enterococcus faecium (GC 2243): strain GC 2243; for MIC Enterococcus faecalis (GC 2691): strain GC 2691; for MIC Enterococcus faecalis (GC 3059): strain GC 3059; for MIC Enterococcus faecalis (GC 4552): strain GC 4552; for MIC Enterococcus faecalis (GC 4553): strain GC 4553; for MIC Enterococcus faecalis (GC 4554): strain GC 4554; for MIC Enterococcus faecium (GC 4556): strain GC 4556; for MIC Enterococcus faecium (GC 4557): strain GC 4557; for MIC Enterococcus avium (GC 4558): strain GC 4558; for MIC Enterococcus faecalis (GC 6189): strain GC 6189", "outline": "(§1)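 Following National Committee for Clinical Laboratory Standards recommendations (M7-A2), susceptibility was measured by dilution in Muller-Hinton II […]. Bacteria were seeded at 5×10^5 CFU/mL against compound concentrations from 64 down to 0.06 μg/mL.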"}, "[2]": {"test_system": "Escherichia coli", "outline": "as §1"}, "[3]": {"test_system": "Staphylococcus sp.", "settings": "broth dilution, 18 hours at 35° C.; for MIC Staphylococcus aureus (GC 1131): strain GC 1131", "outline": "as §1"}, "[4]": {"test_system": "Streptococcus sp.", "settings": "broth dilution, 18 hours at 35° C.; for MIC Streptococcus pneumoniae (ATCC 6301): strain ATCC 6301; for MIC Streptococcus pneumoniae (GC 1894): strain GC 1894; for MIC Streptococcus pyogenes (GC 4563): strain GC 4563; for MIC Streptococcus agalactiae (GC 4564): strain GC 4564; for MIC Streptococcus pneumoniae (GC 4565): strain GC 4565", "outline": "as §1"}},
  "data": [
    {"compound": "CC(c1ccccc1)C1NC(=O)CNC(=O)C(CO)NC(=O)C(C(O)C2CNC(=N)N2C2OC(CO)C(O)C(O)C2O)NC(=O)C(C(O)C2CNC(=N)N2)NC(=O)C(Cc2ccc(OC3OC(CO)C(OC4OC5COC(c6ccc(-c7ccsc7)cc6)OC5C(O)C4O)C(O)C3O)cc2)NC1=O", "note": "(stereo not drawn) [Example 164]", "values": [
      {"measurement": "MIC Enterococcus faecalis (ATCC 29212)", "setting": "[1]; inoculum 5×10^5 CFU/mL", "result": 8, "unit": "µg/mL"},
      {"measurement": "MIC Enterococcus faecalis (GC 2242)", "setting": "[1]; inoculum 5×10^5 CFU/mL", "result": 4, "unit": "µg/mL"},
      {"measurement": "MIC Enterococcus faecium (GC 2243)", "setting": "[1]; inoculum 5×10^5 CFU/mL", "result": 8, "unit": "µg/mL"},
      {"measurement": "MIC Enterococcus faecalis (GC 2691)", "setting": "[1]; inoculum 5×10^5 CFU/mL", "result": 8, "unit": "µg/mL"},
      {"measurement": "MIC Enterococcus faecalis (GC 3059)", "setting": "[1]; inoculum 5×10^5 CFU/mL", "result": 8, "unit": "µg/mL"},
      {"measurement": "MIC Enterococcus faecalis (GC 4552)", "setting": "[1]; inoculum 5×10^5 CFU/mL", "result": 8, "unit": "µg/mL"},
      {"measurement": "MIC Enterococcus faecalis (GC 4553)", "setting": "[1]; inoculum 5×10^5 CFU/mL", "result": 8, "unit": "µg/mL"},
      {"measurement": "MIC Enterococcus faecalis (GC 4554)", "setting": "[1]; inoculum 5×10^5 CFU/mL", "result": 16, "unit": "µg/mL"},
      {"measurement": "MIC Enterococcus faecium (GC 4556)", "setting": "[1]; inoculum 5×10^5 CFU/mL", "result": 8, "unit": "µg/mL"},
      {"measurement": "MIC Enterococcus faecium (GC 4557)", "setting": "[1]; inoculum 5×10^5 CFU/mL", "result": 4, "unit": "µg/mL"},
      {"measurement": "MIC Enterococcus avium (GC 4558)", "setting": "[1]; inoculum 5×10^5 CFU/mL", "result": 8, "unit": "µg/mL"},
      {"measurement": "MIC Enterococcus faecalis (GC 6189)", "setting": "[1]; inoculum 5×10^5 CFU/mL", "result": 4, "unit": "µg/mL"},
      {"measurement": "MIC Enterococcus faecalis (ATCC 29212)", "setting": "[1]", "result": 8, "unit": "µg/mL"},
      {"measurement": "MIC Enterococcus faecalis (GC 2242)", "setting": "[1]", "result": 4, "unit": "µg/mL"},
      {"measurement": "MIC Enterococcus faecium (GC 2243)", "setting": "[1]", "result": 8, "unit": "µg/mL"},
      {"measurement": "MIC Enterococcus faecalis (GC 2691)", "setting": "[1]", "result": 8, "unit": "µg/mL"},
      {"measurement": "MIC Enterococcus faecalis (GC 3059)", "setting": "[1]", "result": 8, "unit": "µg/mL"},
      {"measurement": "MIC Enterococcus faecalis (GC 4552)", "setting": "[1]", "result": 8, "unit": "µg/mL"},
      {"measurement": "MIC Enterococcus faecalis (GC 4553)", "setting": "[1]", "result": 8, "unit": "µg/mL"},
      {"measurement": "MIC Enterococcus faecalis (GC 4554)", "setting": "[1]", "result": 16, "unit": "µg/mL"},
      {"measurement": "MIC Enterococcus faecium (GC 4556)", "setting": "[1]", "result": 8, "unit": "µg/mL"},
      {"measurement": "MIC Enterococcus faecium (GC 4557)", "setting": "[1]", "result": 4, "unit": "µg/mL"},
      {"measurement": "MIC Enterococcus avium (GC 4558)", "setting": "[1]", "result": 8, "unit": "µg/mL"},
      {"measurement": "MIC Enterococcus faecalis (GC 6189)", "setting": "[1]", "result": 4, "unit": "µg/mL"},
      {"measurement": "MIC Escherichia coli (ATCC 25922)", "setting": "[2]; strain ATCC 25922, 18 hours at 35° C.", "result": ">64", "unit": "µg/mL"},
      {"measurement": "MIC Escherichia coli (GC 4559)", "setting": "[2]; strain GC 4559, 18 hours at 35° C.", "result": 64, "unit": "µg/mL"},
      {"measurement": "MIC Escherichia coli (GC 4560)", "setting": "[2]; strain GC 4560, 18 hours at 35° C.", "result": 4, "unit": "µg/mL"},
      {"measurement": "MIC Staphylococcus aureus (GC 1131)", "setting": "[3]; inoculum 5×10^5 CFU/mL", "result": 4, "unit": "µg/mL"},
      {"measurement": "MIC Staphylococcus aureus (ATCC 29213)", "setting": "[3]; strain ATCC 29213", "result": 8, "unit": "µg/mL"},
      {"measurement": "MIC Staphylococcus aureus (GC 1131)", "setting": "[3]", "result": 4, "unit": "µg/mL"},
      {"measurement": "MIC Staphylococcus aureus (GC 3051)", "setting": "[3]; strain GC 3051", "result": 16, "unit": "µg/mL"},
      {"measurement": "MIC Staphylococcus aureus (GC 3053)", "setting": "[3]; strain GC 3053", "result": 8, "unit": "µg/mL"},
      {"measurement": "MIC Staphylococcus aureus (GC 4541)", "setting": "[3]; strain GC 4541", "result": 8, "unit": "µg/mL"},
      {"measurement": "MIC Staphylococcus aureus (GC 4542)", "setting": "[3]; strain GC 4542", "result": 16, "unit": "µg/mL"},
      {"measurement": "MIC Staphylococcus aureus-SMITH (GC 4543)", "setting": "[3]; strain GC 4543", "result": 4, "unit": "µg/mL"},
      {"measurement": "MIC Staphylococcus aureus (GC 4544)", "setting": "[3]; strain GC 4544", "result": 8, "unit": "µg/mL"},
      {"measurement": "MIC Staphylococcus aureus (GC 4545)", "setting": "[3]; strain GC 4545", "result": 4, "unit": "µg/mL"},
      {"measurement": "MIC Staphylococcus haemolyticus (GC 4546)", "setting": "[3]; strain GC 4546", "result": 4, "unit": "µg/mL"},
      {"measurement": "MIC Coagulase Negative Staphylococcus (GC 4547)", "setting": "[3]; strain GC 4547", "result": 4, "unit": "µg/mL"},
      {"measurement": "MIC Coagulase Negative Staphylococcus (GC 4548)", "setting": "[3]; strain GC 4548", "result": 1, "unit": "µg/mL"},
      {"measurement": "MIC Coagulase Negative Staphylococcus (GC 4549)", "setting": "[3]; strain GC 4549", "result": 0.5, "unit": "µg/mL"},
      {"measurement": "MIC Coagulase Negative Staphylococcus (GC 4551)", "setting": "[3]; strain GC 4551", "result": 4, "unit": "µg/mL"},
      {"measurement": "MIC Coagulase Negative Staphylococcus (GC 6257)", "setting": "[3]; strain GC 6257", "result": 1, "unit": "µg/mL"},
      {"measurement": "MIC Staphylococcus aureus-SMITH (GC 4543)", "setting": "[3]; strain SMITH GC 4543", "result": 4, "unit": "µg/mL"},
      {"measurement": "MIC Streptococcus pneumoniae (ATCC 6301)", "setting": "[4]; inoculum 5×10^5 CFU/mL", "result": "<0.06", "unit": "µg/mL"},
      {"measurement": "MIC Streptococcus pneumoniae (GC 1894)", "setting": "[4]; inoculum 5×10^5 CFU/mL", "result": "<0.06", "unit": "µg/mL"},
      {"measurement": "MIC Streptococcus pyogenes (GC 4563)", "setting": "[4]; inoculum 5×10^5 CFU/mL", "result": 0.12, "unit": "µg/mL"},
      {"measurement": "MIC Streptococcus agalactiae (GC 4564)", "setting": "[4]; inoculum 5×10^5 CFU/mL", "result": 0.12, "unit": "µg/mL"},
      {"measurement": "MIC Streptococcus pneumoniae (GC 4565)", "setting": "[4]; inoculum 5×10^5 CFU/mL", "result": "<0.06", "unit": "µg/mL"},
      {"measurement": "MIC Streptococcus pneumoniae (ATCC 6301)", "setting": "[4]", "result": "<0.06", "unit": "µg/mL"},
      {"measurement": "MIC Streptococcus pneumoniae (GC 1894)", "setting": "[4]", "result": "<0.06", "unit": "µg/mL"},
      {"measurement": "MIC Streptococcus pyogenes (GC 4563)", "setting": "[4]", "result": 0.12, "unit": "µg/mL"},
      {"measurement": "MIC Streptococcus agalactiae (GC 4564)", "setting": "[4]", "result": 0.12, "unit": "µg/mL"},
      {"measurement": "MIC Streptococcus pneumoniae (GC 4565)", "setting": "[4]", "result": "<0.06", "unit": "µg/mL"}
    ]}
  ]
}
